# Patent publication US20080132520A1, “COMPOSITIONS, KITS AND METHODS FOR ADMINISTERING A TITRATION SCHEDULE COMPRISING BIFEPRUNOX COMPOUNDS” (priority 2006, published 2008)
# How the values were obtained:
# [1] = Clinical investigations on bifeprunox mesylate: tolerability; settings: human, in vivo
# [2] = Randomized, double-blinded, placebo-controlled, sequential panel, rapid titration study: safety and tolerability; type: in vivo, human
# Experimental: This study represented a randomized, double-blinded, placebo-controlled, sequential panel, rapid titration study of the safety and tolerability of bifeprunox compounds in subjects with schizophrenia. In particular, this study assessed the safety, tolerability and efficacy after a rapid titration of bifeprunox to a therapeutic dose of 40 mg/day in schizophrenia and schizoaffective subjects. Eligible subjects were hospitalized at the start of the screening period and entered a single-blind placebo run-in period (day -7 to -1) to assure that the 7-day antipsychotic drug-free criterion was met prior to bifeprunox titration. Subjects then began rapid titration at an initial bifeprunox starting dose of 0.25 mg with a high proposed therapeutic dose of 40 mg/day. Two titration schedules were evaluated in sequential order, with the titration period lasting 6 to 7 days depending on the titration schedule (Day 1 to Day 6 or 7).
# Each listed dose in the titration schedule was administered once daily (QD) followed by the next higher dose the following day. […] Only one repeat dose, however, was allowed during the entire titration period. Upon reaching the high proposed dose of 40 mg/day, the subject entered a 3-day maintenance period for this dose. Final assessments were performed on the day after the last maintenance period dose and follow-up assessments were performed 3 days after the last dose of study treatment.
# Efficacy assessments (i.e., Positive and Negative Symptoms of Schizophrenia (PANSS) and Clinical Global Impression-Severity (CGI-S) were performed at screening, Day-1 and at the final assessment; Clinical Global Impressions-improvement (CGI-I was performed at the final assessment only. Safety was monitored throughout the study by assessment of physical examination, vital signs, adverse events (AEs), concomitant medications, clinical laboratory assessments, 12-lead electrocardiograms (ECGs), Simpson-Angus Scale (SAS) score and Barnes Akathisia Scale (BAS) score. The treatment phase lasted approximately two weeks, including follow-up assessment. Subjects remained hospitalized until the post-treatment follow-up assessment was completed or until their condition had clinically stabilized.
# The study planned to include 20 subjects (10 subjects per panel). Twenty-seven subjects were screened and 18 were randomized (7 to bifeprunox and 1 to placebo in titration schedule 1 and 8 to bifeprunox and 2 to placebo titration schedule 2c). Ten subjects per panel were initially available as planned. Two subjects, however, dropped out of the first panel before the start of the study. As such, the study proceeded with the eighteen subjects.
# Males and females between 18-55 years old meeting Diagnostic and Statistical Manual of Mental Disorders, 4th edition, Text Revised (DSM-IV TR) diagnosis of Schizophrenia disorder (295.10, 295.20, 295.30, 295.60 and 295.90) or Schizoaffevtive disorder (295.70).
# Bifeprunox were tablets taken orally at a total daily dose of 0.25 mg to 40 mg in the following titration schedules:
# Placebo tablets matching the bifeprunox tablets were taken orally using the same dosing regimen as the test product.
# [3] = Rapid titration study: efficacy assessments (PANSS, CGI-S, CGI-I); type: in vivo, human; settings: short treatment period, titration to 40 mg/day plus 3-day maintenance
# Experimental: This study represented a randomized, double-blinded, placebo-controlled, sequential panel, rapid titration study of the safety and tolerability of bifeprunox compounds in subjects with schizophrenia. […] Efficacy assessments (i.e., Positive and Negative Symptoms of Schizophrenia (PANSS) and Clinical Global Impression-Severity (CGI-S) were performed at screening, Day-1 and at the final assessment; Clinical Global Impressions-improvement (CGI-I was performed at the final assessment only. […] The treatment phase lasted approximately two weeks, including follow-up assessment. Subjects remained hospitalized until the post-treatment follow-up assessment was completed or until their condition had clinically stabilized.
# dopamine D2/3 receptors = settings: cited from earlier work
# [4] = target: T1, serotonin 5-HT1A receptors (Homo sapiens, UniProt P08908); settings: cited from earlier work
# T1 sequence (P08908 1-422): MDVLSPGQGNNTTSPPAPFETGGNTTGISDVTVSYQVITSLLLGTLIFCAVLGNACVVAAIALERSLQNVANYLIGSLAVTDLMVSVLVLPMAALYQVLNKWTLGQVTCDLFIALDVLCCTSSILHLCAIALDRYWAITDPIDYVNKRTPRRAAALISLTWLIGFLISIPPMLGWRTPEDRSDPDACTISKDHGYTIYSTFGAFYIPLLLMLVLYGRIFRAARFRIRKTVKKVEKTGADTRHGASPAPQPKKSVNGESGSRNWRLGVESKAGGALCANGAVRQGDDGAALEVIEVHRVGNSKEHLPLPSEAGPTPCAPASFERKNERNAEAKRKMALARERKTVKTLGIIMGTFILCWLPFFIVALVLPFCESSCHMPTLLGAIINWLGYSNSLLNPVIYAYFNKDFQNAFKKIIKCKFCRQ
smiles,measurement,setting,value
"CS(=O)(=O)O.O=c1[nH]c2cccc(N3CCN(Cc4cccc(-c5ccccc5)c4)CC3)c2o1 [bifeprunox mesylate, 7-[4-([1,1′-biphenyl]-3-ylmethyl)-1-piperazinyl]-2(3H)-benzoxazolone monomethane-sulfonate]",tolerability during clinical investigations,[1],well tolerated
"O=c1[nH]c2cccc(N3CCN(Cc4cccc(-c5ccccc5)c4)CC3)c2o1 [bifeprunox, 7-[4-([1,1′-biphenyl]-3-ylmethyl)-1-piperazinyl]-2(3H)-benzoxa-zolone]",subjects with TEAEs leading to discontinuation of the study treatment,[2]; titration schedule 1,Three subjects
same,subjects with at least 1 TEAE related to study treatment,[2]; titration schedule 1,All subjects
same,subjects with vital sign abnormalities on the same day as relevant AEs (dizziness or orthostatic hypotension),[2]; titration schedule 1,Two subjects
same,tolerability of daily increases to 20 to 40 mg once the 10 mg dose was reached,[2]; titration schedule 1,well-tolerated
same,subjects reporting at least one treatment emergent adverse event (TEAE),"[2]; titration schedule 1 (0.25, 1, 5, 10, 20, 40 mg QD oral over 6 days), 7 subjects on bifeprunox",All subjects
same,TEAEs at the 20 mg dose level,"[2]; titration schedule 1, 20 mg dose level",No TEAEs occurred
same,subjects reporting TEAEs considered to be severe,"[2]; titration schedule 1, severe TEAEs at the 1, 5 and 10 dose levels",Three subjects
same,"TEAEs of anorexia, gait abnormal NOS or orthostatic hypotension",[2]; titration schedule 2c,no TEAEs
same,additional subjects requiring re-challenge of a dose level who completed titration up to 40 mg,[2]; titration schedule 2c,Two additional subjects
same,subjects with TEAEs related to the study treatment,[2]; titration schedule 2c,Six out of 8
same,subjects with vital sign abnormalities same days as AEs of dizziness,[2]; titration schedule 2c,Four subjects
same,subjects reporting at least one TEAE,"[2]; titration schedule 2c (0.25, 0.5, 2, 5, 10, 20, 40 mg QD oral over 7 days), 8 subjects on bifeprunox",All subjects
same,tolerability of titration from 0.25 mg to 40 mg over 7 days versus over a 6-day period,[2]; titration schedule 2c versus 1,better tolerated
same,subjects with TEAE leading to discontinuation of the study treatment,"[2]; titration schedule 2c, TEAE of dizziness",One subject
same,subjects reporting TEAEs considered to be severe,"[2]; titration schedule 2c, severe TEAEs at the 2 mg and 5 mg dose level",Three subjects
same,"effects on BAS, SAS, ECG or clinical laboratory evaluations",[2]; titration schedules 1 and 2c,Neither titration schedule of bifeprunox appeared to have any effects
same,"benefit over placebo in severity of symptoms of schizophrenia (PANSS total scores, CGI-S and CGI-I scores, responder rate)",[3],little benefit
same,functional activity at dopamine D2/3 receptors,dopamine D2/3 receptors,partial agonist
same,functional activity at serotonin 5-HT1A receptors,[4],partial agonist
